Experiments:
[1] = tested on: dogs; assay: Dog toxicology study using buccal delivery for up to 4 weeks; assay type: in vivo; settings: for maximum systemic concentration of fipamezole: buccal, first day
Procedure: (§1) Cardiac safety was studied in dogs in a 30-day dog toxicology study using oral dosing and dog toxicology studies using buccal dosing.
Maximum systemic concentrations of fipamezole after dosing on the first day of this study were about 800, 2000 and 3300 ng/ml.

[2] = Plasma levels of fipamezole in healthy male volunteers after a single 30 mg dose (oral, oromucosal tablet, oromucosal spray); assay type: in vivo, human; settings: for AUC(0-inf) / Cmax / Tmax: human, plasma; for AUC(0-inf) / Cmax / t1/2el: mean
Procedure: Plasma levels of fipamezole were studied in healthy male volunteers after oral administration of the drug as a solution. Blood samples for pharmcokinetic evaluation were collected for 24 hours after the drug administration. The concentration of fipamezole in plasma was measured with HPLC-MS/MS, and the pharmacokinetic parameters were calculated. The pharmacokinetics of fipamezole was evaluated with TopFit 2.0 pharmacokinetic program. The Cmax and tmax values were read from the concentration vs. time curves, and the apparent elimination phase half-lives from the terminal part of the semilogarithmic concentration vs. time curve (see FIG. 1). AUC values were calculated both to infinity and up to the last collection time with quantifiable fipamezole concentration. Mean plasma concentration time plot following single dose administration of 30 mg fipamezole via an oral, oromucosal spray and an oromucosal tablet on a semilogarithmic scale is shown in FIG. 1.

[3] = tested on: dogs; assay: 30-day dog toxicology study using oral dosing (cardiac safety); assay type: in vivo; settings: for maximum systemic fipamezole concentration: oral
Procedure: as §1
In the 30-day dog toxicology study fipamezole was administered orally at doses of 1, 5, 10 and 15 mg/kg/day for 30 days, resulting in maximum systemic fipamezole concentrations of about 200, 1000, 2000 and 3300 ng/ml, respectively.

[4] = tested on: dogs; assay: Dog toxicology study, buccal spray, sequential dosing regimen (blood pressure, heart rate, ECG); assay type: in vivo
Procedure: as §1
In another toxicology study four male dogs were given fipamezole in buccal spray doses of 1, 5 and 10 mg/kg in a sequential dosing regimen with 5 to 15 days between doses. Blood pressure (systolic, diastolic and mean), heart rate and ECGs were monitored before and up to 12 hours after dosing.

[5] = other: oromucosal spray, oromucosal spray
[6] = other: oromucosal tablet, oromucosal tablet
[7] = buccal spray 5 and 10 mg/kg, 30 minutes after dosing

- AUC(0-inf) ([2]; oral (solution)): 7.65 ng·h/mL
- Cmax ([2]; oral (solution)): 1.59 ng/mL
- Tmax ([2]; oral (solution), median): 1 h
- AUC(0-inf) [2, 5]: 157 ng·h/mL
- Cmax [2, 5]: 49.2 ng/mL
- Tmax ([2]; other: oromucosal spray, oromucosal spray, median): 0.7 h
- Tmax [2, 6]: 0.85 h
- AUC(0-inf) [2, 6]: 116 ng·h/mL
- Cmax [2, 6]: 31.7 ng/mL
- t1/2el ([2]; oral (solution)): 3.10 h
- t1/2el ([2]; oromucosal spray): 2.10 h
- t1/2el ([2]; oromucosal tablet): 3.10 h
SMILES: CCC1(c2c[nH]cn2)Cc2ccc(F)cc2C1.Cl (stereo not drawn) [fipamezole, 4-(2-ethyl-5-fluoroindan-2-yl)-1H-imidazole hydrochloride]
- changes in ECG ([1]; buccal delivery 1, 5 and 10 mg/kg/day for up to 4 weeks): no apparent changes in ECG
- maximum systemic concentration of fipamezole ([1]; 1 mg/kg/day): about 800 ng/ml
- maximum systemic concentration of fipamezole ([1]; 5 mg/kg/day): ~2000 ng/mL
- maximum systemic concentration of fipamezole ([1]; 10 mg/kg/day): ~3300 ng/mL
- systemic concentration of fipamezole at which QT prolongation was observed ([3]; high oral doses, 30-day study): about 2000 ng/ml
- maximum systemic fipamezole concentration ([3]; 1 mg/kg/day for 30 days): about 200 ng/ml
- maximum systemic fipamezole concentration ([3]; 5 mg/kg/day for 30 days): ~1000 ng/mL
- maximum systemic fipamezole concentration ([3]; 10 mg/kg/day for 30 days): about 2000 ng/ml
- maximum systemic fipamezole concentration ([3]; 15 mg/kg/day for 30 days): ~3300 ng/mL
- ECG changes (P wave amplitude, P wave duration, P-Q interval, QRS interval or Q-T interval) ([4]; buccal spray 1, 5 and 10 mg/kg, each dose level, up to 12 hours after dosing): No ECG changes
- blood pressure (absolute values) [4, 7]: significant transient increases
- heart rate (absolute values) [4, 7]: significant transient increases
